Measurements reported in patent US12600696B2 (XENIOPRO GMBH, priority 2017, dated 2026).

What was measured:
Format in all cases: cell-based
[1] = tested on: HPEKp cells (human epidermal keratinocyte progenitors, pooled); experiment: alamarBlue proliferation assay with HPEKp cells; conditions: 120 h, relative to DMSO basis level 1.0, read-out: weighted arithmetic mean (AVEw) of normalized fluorescence intensity, activity range
Method: (§1) The antiproliferative activities of compounds falling under formula I, formula II, formula III, formula IV and formula V were investigated on cells or cell lines originating from a disorder of the myeloid cell compartment, the neuroendocrine system, the cervix, and the mucosal epithelium, as well as from the skin epithelium. To this end, HL-60 cells, TT cells, HeLa cells, CAL-27 cells and human primary epidermal keratinocytes (HPEK) were seeded into 96-well plates suitable for fluorescence assays (CORNING #3598) at following initial cell numbers: 1000 cells per well for HL-60; 9000 cells per well for TT; 2000 cells per well for HeLa, 2000 cells per well for CAL-27, 2000 cells per well for HPEK. The cells were treated with compounds at indicated final concentrations (diluted from the 1000× stock-solutions in DMSO to a final DMSO concentration of 0.1% v/v) or with the empty carrier DMSO at 0.1% v/v as control for 5 days. At day 5 after starting the treatments the cells were subjected to the alamarBlue® Proliferation Assay (Bio-Rad Serotec GmbH, BUF012B) according to the protocol of the manufacturer. The readout was taken with a multi-well plate-reader in the fluorescence mode with applying a filter for excitation at 560 nm (band width 10 nm) and for emission at 590 nm (band width 10 nm). Resveratrol (RES) treatment was included as control for growth inhibition.
(§2) The assays were performed in duplicate or more replicates of independent single experiments each containing a six-fold replicate for every condition. For every individual plate, the measured fluorescence intensity values of the conditions with compound treatment were normalized against the corresponding equally weighted arithmetic mean of the fluorescence intensity values of the six DMSO treated control wells in order to obtain the relative values to a baseline level of 1.0. The statistical calculations were performed in analogy to the luciferase assay as described above. To this end, two independent outlier analyses were performed according to the methods by Peirce and Chauvenet (Ross, Journal of Engineering Technology 2003, 1-12). Outliers confirmed by at least one of the methods were excluded from the calculations but not more than one value out of six per compound within a single experiment. The weighted arithmetic mean AVEw for each compound was calculated from the normalized values over all independent replicates of the single experiments comprising the six replicates each. The corresponding standard deviation for the weighted arithmetic mean was calculated according to the method described by Bronstein et al. (Bronstein, Semendjajew, Musiol, Mühlig, Taschenbuch der Mathematik, 5th edition 2001 (German), publisher: Verlag Harri Deutsch, Frankfurt am Main and Thun) and was combined with the Gauß′ error propagation associated with the performed calculation for the normalization. The resulting standard deviation is herein referred to as “combined standard deviation”.
HPEKp cells were cultivated according to the protocol of the provider in CnT-Prime epithelial culture medium (CELLnTEC, #CnT-PR, a fully defined, low calcium formulation, completely free of animal or human-derived components) without addition of further components.
(§3) A compound is considered as a growth inhibitor of HPEKp cells, if—at a reference concentration of 10 μM—the weighted arithmetic mean of the normalized fluorescence intensity values after addition of the corresponding combined standard deviation amounts to 0.9 or lower, in particular to 0.8 or lower, 0.7 or lower, 0.6 or lower, 0.4 or lower, and 0.2 or lower, relative to the overall basis level of 1.0. The overall basis level was calculated as the weighted arithmetic mean of all normalized values from the DMSO control measurements in analogy to the calculations performed for the test-compounds. The corresponding combined standard deviation for the DMSO values amounts to less than 1·10^−2.

[2] = tested on: HL-60 cells (human acute myeloid leukemia cells); experiment: alamarBlue proliferation assay with HL-60 cells; conditions: 120 h, 5 days, relative to DMSO baseline level of 1.0, read-out: AVEw, weighted arithmetic mean of normalized fluorescence intensity values (Activity Range), HL-60 proliferation
How it was run: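 HL-60 cells (1000/well, RPMI 1640 + 10% FBS) exposed to compound in 0.1% DMSO for 5 days, then alamarBlue fluorescence read (ex 560/em 590 nm). Signals normalized to six DMSO wells per plate (baseline 1.0); outliers removed by Peirce/Chauvenet; weighted mean with combined SD; inhibitor criterion judged at 20 μM reference concentration.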

[3] = tested on: Notch signaling (hNotch1ΔE, human Notch1 receptor) in HeLa cells; experiment: Notch reporter assay (luciferase luminescence readout in transfected HeLa cells); conditions: Homo sapiens, 20 hours, relative to DMSO baseline level of 1.0, read-out: AVEw, weighted arithmetic mean of double-normalized Notch-reporter luciferase luminescence values (Activity Range)
How it was run: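 HeLa cells were transiently transfected for 24 h with membrane-tethered constitutively active hNotch1ΔE, a CSL-promoter Firefly luciferase reporter and constitutive SV40-Renilla luciferase. Compounds were then applied at 10 μM (0.1% DMSO) for 20 h. Firefly/Renilla dual-luciferase ratios were normalized to DMSO control (baseline 1.0), outliers were excluded, and replicate values were averaged across ≥3 independent experiments.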

[4] = tested on: CAL-27 cells (human tongue squamous cell carcinoma cells); experiment: alamarBlue proliferation assay with CAL-27 cells; conditions: Homo sapiens, 120 h, 20 μM, 5 days, relative to DMSO baseline level of 1.0, read-out: AVEw, weighted arithmetic mean of normalized fluorescence intensity values (Activity Range), CAL-27 proliferation
Method: as §1, §2
CAL-27 cells were cultivated according to the protocol of the provider (but at 5% instead of 10% CO2) in DMEM medium (Fisherscientific, #11584456) containing 10% fetal bovine serum (Fisherscientific, #15517589).
as §3, with “of CAL-27” for “of HPEKp”, “of 20” for “of 10”

SMILES | activity at 10 µM [1] | activity at 20 µM [2] | fold induction at 10 µM [3] | activity at 20 µM [4]
COC(=O)c1ccc(Oc2ccc(C3C[C@@H]4CC[C@H]3C4)cc2)nc1 (stereo partly drawn) [Compound 112, methyl 6-(4-((1S,4R)-bicyclo[2.2.1]heptan-2-yl)phenoxy)nicotinate] | 40 to 60% | – | – | –
CCCc1ccc(Oc2ccc(C(N)=O)cc2)cc1 [Compound 140, 4-(4-propylphenoxy)benzamide] | 80 to 90% | – | – | –
CCCCCc1ccc(Oc2ccc(C(=O)NO)cc2)cc1 [Compound 168, N-hydroxy-4-(4-pentylphenoxy)benzamide] | – | 0 to 20% | 1.3 to 1.4 | 0 to 20%
CC(C)c1ccc(Oc2ccc(C(=O)NO)cc2)cc1 [Compound 170, N-hydroxy-4-(4-isopropylphenoxy)benzamide] | – | 0 to 20% | 1.1 to 1.2 | 20 to 40%
O=C(NO)c1ccc(Oc2ccc(C3C[C@@H]4CC[C@H]3C4)cc2)cc1 (stereo partly drawn) [Compound 184, 4-(4-((1S,4R)-bicyclo[2.2.1]heptan-2-yl)phenoxy)-N-hydroxybenzamide] | – | 0 to 20% | 1.3 to 1.4 | 0 to 20%
CCc1ccc(Oc2ccc(C(=O)NC)cc2)cc1 [Compound 190, 4-(4-ethylphenoxy)-N-methylbenzamide] | 60 to 70% | – | – | –
Cc1ccc(Oc2ccc(C(=O)NO)cn2)cc1 [Compound 266, N-hydroxy-6-(p-tolyloxy)nicotinamide] | – | 0 to 20% | 1.4 to 1.7 | 40 to 60%
CCc1ccc(Oc2ccc(C(=O)NO)cn2)cc1 [Compound 267, 6-(4-ethylphenoxy)-N-hydroxynicotinamide] | – | 0 to 20% | 1.1 to 1.2 | 20 to 40%
CCCc1ccc(Oc2ccc(C(=O)NO)cn2)cc1 [Compound 268, N-hydroxy-6-(4-propylphenoxy)nicotinamide] | – | 0 to 20% | 1.3 to 1.4 | 0 to 20%
CCCCc1ccc(Oc2ccc(C(=O)NO)cn2)cc1 [Compound 269, 6-(4-butylphenoxy)-N-hydroxynicotinamide] | – | 0 to 20% | 1.4 to 1.7 | 0 to 20%
CCCCCc1ccc(Oc2ccc(C(=O)NO)cn2)cc1 [Compound 270, N-hydroxy-6-(4-pentylphenoxy)nicotinamide] | – | 0 to 20% | – | 0 to 20%
O=C(NO)c1ccc(Oc2ccc(C(F)(F)F)cc2)nc1 [Compound 275, N-Hydroxy-6-(4-(trifluoromethyl)phenoxy)nicotinamide] | – | 0 to 20% | 1.2 to 1.3 | 0 to 20%
O=C(NO)c1ccc(Oc2ccc(C3C[C@@H]4CC[C@H]3C4)cc2)nc1 (stereo partly drawn) [Compound 286, 6-(4-((1S,4R)-bicyclo[2.2.1]heptan-2-yl)phenoxy)-N-hydroxynicotinamide] | – | 0 to 20% | 1.3 to 1.4 | 0 to 20%
CNC(=O)c1ccc(Oc2ccc(C34CC5CC(CC(C5)C3)C4)cc2)nc1 [Compound 313, 6-(4-((3r,5r,7r)-adamantan-1-yl)phenoxy)-N-methylnicotinamide] | – | 40 to 60% | – | 70 to 80%
CCC(C)(C)c1ccc(Oc2ccc(C(=O)NO)cc2F)cc1 [Compound 529, 3-fluoro-N-hydroxy-4-(4-(tert-pentyl)phenoxy)benzamide] | – | 0 to 20% | – | 0 to 20%
CN(C)C(=O)c1ccc(Oc2ccc(C34CC5CC(CC(C5)C3)C4)cc2)c(F)c1 [Compound 596, 4-(4-((3r,5r,7r)-adamantan-1-yl)phenoxy)-3-fluoro-N,N-dimethylbenzamide] | – | 20 to 40% | – | 80 to 90%
O=C(NO)c1cnc(Oc2ccc(C34CC5CC(CC(C5)C3)C4)cc2)c(F)c1 [Compound 648, 6-(4-((3r,5r,7r)-adamantan-1-yl)phenoxy)-5-fluoro-N-hydroxynictinamide] | – | 0 to 20% | – | 0 to 20%
O=C(NO)c1ccc(Oc2ccc(C3(C(F)(F)F)CC3)cc2)cc1 [Compound 766, N-hydroxy-4-(4-(1-(trifluoromethyl)cyclopropyl)phenoxy)benzamide] | – | 0 to 20% | – | 0 to 20%
O=C(NO)c1ccc(Oc2ccc(C3(C(F)(F)C(F)(F)F)CC3)cc2)cc1 [Compound 767, N-hydroxy-4-(4-(1-(perfluoroethyl)cyclopropyl)phenoxy)benzamide] | – | 0 to 20% | – | 0 to 20%
O=C(NO)c1ccc(Oc2ccc(C3(C(F)(F)F)CC3)cc2Cl)cc1 [Compound 774, 4-(2-chloro-4-(1-(trifluoromethyl)cyclopropyl)phenoxy)-N-hydroxybenzamide] | – | 0 to 20% | – | 70 to 80%
O=C(NO)c1ccc(Oc2ccc(C3(C(F)(F)F)CC3)cc2)nc1 [Compound 802, N-hydroxy-6-(4-(1-(trifluoromethyl)cyclopropyl)phenoxy)nicotinamide] | – | 0 to 20% | – | 0 to 20%
O=C(NO)c1ccc(Oc2ccc(C3(C(F)(F)C(F)(F)F)CC3)cc2)nc1 [Compound 803, N-hydroxy-6-(4-(1-(perfluoroethyl)cyclopropyl)phenoxy)nicotinamide] | – | 0 to 20% | – | 0 to 20%
O=C(NO)c1cnc(Oc2ccc(C3(C(F)(F)F)CC3)cc2)c(F)c1 [Compound 804, 5-fluoro-N-hydroxy-6-(4-(1-(trifluoromethyl)cyclopropyl)phenoxy)nicotinamide] | – | 0 to 20% | – | 0 to 20%
CN(C)C(=O)c1ccc(Oc2ccc(C3(C(F)(F)F)CC3)cc2)nc1 [Compound 820, N,N-Dimethyl-6-(4-(1-(trifluoromethyl)cyclopropyl)phenoxy)-nicotinamide] | – | 40 to 60% | 1.4 to 1.7 | 80 to 90%
CN(C)C(=O)c1cnc(Oc2ccc(C3(C(F)(F)F)CC3)cc2)c(F)c1 [Compound 822, 5-fluoro-N,N-dimethyl-6-(4-(1-(trifluoromethyl)cyclopropyl)phenoxy)nicotinamide] | – | 70 to 80% | – | 80 to 90%
